In patent US4759917A, “Oxidative dissolution of gallium arsenide and separation of gallium from arsenic” (priority 1987, dated 1988):
Values joined by “and” are separate entries in the source; they are usually repeats but may differ in a detail not shown here. Equal entries are not always repeated. Structures can show the parent of a compound that is named as a salt. Where two headings read alike, the source gives them in different places.

What was measured:
[1] = Example 4: oxidizing agents with N-methylnonanohydroxamic acid as complexing agent on gallium arsenide (Table 5)
Procedure: A series of procedures were conducted to test effectiveness of various complexing agents with hydrogen peroxide to oxidize and effect dissolution of gallium arsenide. A 0.5 gram amount of GaAs powder was added to a 50 ml beaker with 20 ml deionized water. The complexing agent was added with stirring, followed by addition of 5 ml 30% hydrogen peroxide in water with stirring. Stirring was continued for about 10 minutes with gradual heating on a hot plate to 85° C., with observation for reaction. The mixtures were then allowed to stand at room temperature for about four days with observation for further changes, and the percentage of the starting gallium which had dissolved was determined by analysis of the liquid by atomic absorption.
Using the procedure of Example 2 and 3.0 ml of N-methylnonanohydroxamic acid as complexing agent, a number of oxidizing agents were employed with gallium arsenide, with results as reported in Table 5.

[2] = Example 2: complexing agents with hydrogen peroxide to oxidize and dissolve gallium arsenide (Table 3)
[3] = Aqueous solubilities of N-alkylalkano and N-H hydroxamic acids (Table 1); format: physicochemical
Excerpt: It is desirable that the N-organo hydroxamic acid have low solubility in water in order to effect ready separation of the chelated gallium from the aqueous oxidizing medium.
For the extraction to occur, it is necessary that the extractant have some slight solubility in the aqueous Ga-containing medium.

[4] = Example 1: gallium recovery from Lap Sludge by simultaneous dissolution and separation
[5] = Solubility in a typical phosphate rock treater dust leachate; format: physicochemical; conditions: leachate with high concentrations of Al, Zn, Fe, phosphate and other ions
Excerpt: It wlll be noted that most of the N-alkyl hydroxamic acids have very low solubilities in aqueous media, with the solubility tending to increase with decreasing number of carbon atoms in the hydroxamic acids. […] This appreciable but limited solubility appears responsible for the effectiveness of N-methylnonanohydroxamic acid in extracting Ga from such leachates, with regard to both rate and extent of the extraction compared to higher carbon number N-alkyl hydroxamic acids. For the extraction to occur, it is necessary that the extractant have some slight solubility in the aqueous Ga-containing medium.

[6] = Hydrolysis of hydroxamic acids in gallium extraction, washing and stripping procedures (Table 2); format: physicochemical; conditions: hydrolysis after gallium extraction, spectrophotographic analysis
Procedure: The extent of hydrolysis of some hydroxamic acids used in some gallium extraction, washing and stripping procedures was determined by spectrophotographic analysis of the solution after completion of the procedures, with results as reported in Table 2.
The procedures and further information on the hydrolytic stability of N-alkyl hydroxamic acids are reported in the aforesaid copending application Ser. No. 937,849. The hydrolytic stability of the N-alkyl hydroxamic acids is an advantage for their use in the present invention.

[7] = 3.0 ml N-methylnonanohydroxamic acid as complexing agent
[8] = 0.5 g GaAs, 20 ml water, 5 ml 30% H2O2, heated to 85° C. about 10 min, then about four days at room temp.
[9] = observation during about 10 min stirring with heating to 85° C., H2O2
[10] = 30% H2SO4 strip of organic phase
[11] = aqueous phase plus dilute nitric acid and other washes

II
Result: time to complete reaction, no heating [1, 7]: 60 s

CCCCCCCCCc1ccc(O)cc1 [4-nonylphenol]
% Ga in Solution After 4 Days [2]: 0% | Initial Result [2]: No reaction

CC(=O)NO [Acetohydroxamic Acid]
Initial Result: time to complete dissolution [2]: 25 min | Initial Result: % reacted in 30 min. ([2]; 0.62 grams, omitted heating, 30 min.): 80% | % Ga in Solution After 4 Days (omitted heating) ([2]; omitted heating, H2O2): 100%

CC(O)(P(=O)(O)O)P(=O)(O)O [Dequest ® 2010]
% Ga in Solution After 4 Days [2]: 100% | effectiveness in reaction and dissolution of gallium arsenide ([2]; H2O2 as oxidizing agent): works well

CCCCC(CC)COP(=O)(O)OCC(CC)CCCC (centres unmarked) [Di-(2-ethylhexyl) phosphoric acid]
% Ga in Solution After 4 Days [2]: 0% | Initial Result [2]: No reaction

O=P([O-])([O-])O.[Na+].[Na+] [Disbasic Sodium phosphate (Na2 HPO4), Disbasic Sodium phosphate]
% Ga in Solution After 4 Days [2]: 100% | effectiveness in reaction and dissolution of gallium arsenide [2]: effective in causing dissolution, but at a slow rate and with some white precipitate formation

O=C(O)CN(CCN(CC(=O)O)CC(=O)O)CC(=O)O [Ethylene diamine tetracetic acid]
% Ga in Solution After 4 Days [2]: 84.2%

O=P(O)(O)CCP(=O)(O)O [H2 O3 PCH2 CH2 PO3 H2, ethylene diphosphonic acid]
effectiveness in reaction and dissolution of gallium arsenide ([2]; H2O2 as oxidizing agent): an insoluble gallium complex may form and precipitate from the aqueous oxidizing medium | Initial Result: time to complete reaction ([2]; heating to 85° C., H2O2): 3 min

O=[N+]([O-])O [HNO3 conc., nitric acid]
Result: time to complete reaction [1, 7]: 50 s | Result: time to complete reaction, no complexing agent ([1]; no complexing agent): 20 min

[K+].[OH-] [KOH, potassium hydroxide]
Initial Result [2]: No reaction

C=CC(CC(C)(C)CC(C)(C)C)c1ccc2cccnc2c1O (centres unmarked) [Kelex ® 100]
% Ga in Solution After 4 Days [2]: 0%

O=P([O-])(O)O.[Na+] [Monobasic sodium phosphate (NaH2 PO4), Monobasic sodium phosphate]
% Ga in Solution After 4 Days [2, 8]: 0% | Initial Result [2, 9]: No reaction

CCCCCCCCCC(CCCCCCCCC)N(O)C(=O)C1CCCCC1 [N-(1-nonyldecyl) cyclohexanohydroxamic acid]
Solubility (25° C.) [3]: 0.7 ± 1 ppm | Solubility (25° C.), molarity [3]: 1.7 × 10^-6 molarity

CCCCCCCCCC(=O)N(O)CCCCCC [N--hexyldecanohydroxamic acid]
Solubility (25° C.) [3]: 1.6 ± 1 ppm | Solubility (25° C.), molarity [3]: 5.71 × 10^-6 molarity

CCCCCCCCCC(=O)N(O)C(C)C [N--isopropyldecanohydroxamic acid]
Solubility (25° C.) [3]: 3.9 ± 1 ppm | Solubility (25° C.), molarity [3]: 1.68 × 10^-5 molarity

CCCCCCCCCC(=O)N(C)O [N--methyldecanohydroxamic acid]
Solubility (25° C.) [3]: 111. ppm and 82. ppm

CCCCCCCCCCCCCCCC(=O)N(C)O [N--methylhexadecanohydroxamic acid]
Solubility (25° C.) [3]: 1.3 ± 1 ppm | Solubility (25° C.), molarity [3]: 4.60 × 10^-6 molarity

CCCCCCCCC(=O)N(C)O [N-methylnonanohydroxamic acid]
% Ga in Solution After 4 Days [2]: 100% | effectiveness in reaction and dissolution of gallium arsenide ([2]; H2O2 as oxidizing agent): effective complexing agent | Solubility (25° C.) [3]: 409. ppm | Solubility (25° C.), molarity [3]: 2.18 × 10^-3 molarity | As in combined aqueous acid stripping solutions [4, 10]: 15 ppm | Ga in combined aqueous acid stripping solutions [4, 10]: 1100 ppm | As in combined aqueous phase and wash solutions [4, 11]: 2510 ppm | Ga in combined aqueous phase and wash solutions [4, 11]: 114 ppm | arsenic and gallium in water washings of organic phase ([4]; detection limit less than 1 ppm for each element): Neither arsenic nor gallium was detectable | Ga recovered per gram of starting sludge ([4]; starting sludge 17.7 mg Ga/gram): 17.8 mg Ga per gram | As recovered per gram of starting sludge ([4]; starting sludge analyzed 13.4 mg As/gram): 17.3 mg As/gram | solubility in a typical phosphate rock treater dust leachate [5]: 20 ppm | solubility in a typical phosphate rock treater dust leachate, molarity [5]: 1.07×10^-4 molarity

O.O=P([O-])(O)O.[Na+] [NaH2 PO4.H2 O]
% Ga in Solution After 4 Days [2, 8]: 0% | Initial Result [2, 9]: No reaction

[Na+].[OH-] [NaOH, sodium hydroxide]
% Ga in Solution After 4 Days [2]: 100%

CC(=O)N(C)O [Nmethyl acetohydroxamic acid, N-methyl acetohydroxamic acid]
Initial Result: time to complete dissolution [2]: 5 min | Initial Result: % reacted in 10 min. ([2]; 0.80 grams, omitted heating, 10 min.): 90% | effectiveness in reaction and dissolution of gallium arsenide ([2]; H2O2 as oxidizing agent): the chelated gallium does not readily separate from the aqueous oxidation medium | % Ga in Solution After 4 Days (omitted heating) ([2]; omitted heating, H2O2): 100%

Oc1cccc2cccnc12 [Oxine (8-hydroxy quinoline), 8-hydroxy quinoline]
Initial Result [2]: Precipitate

O=S(=O)([O-])OOS(=O)(=O)[O-].[K+].[K+] [Potassium persulfate]
Result [1, 7]: No reaction

O=P(O)(O)O [Potassium phosphate (K3 PO4), Potassium phosphate]
% Ga in Solution After 4 Days [2]: 100% | Initial Result: time to complete reaction (secs) [2]: 50

O=P([O-])([O-])OP(=O)([O-])OP(=O)([O-])[O-].[Na+].[Na+].[Na+].[Na+].[Na+] [Sodium Triphosphate]
% Ga in Solution After 4 Days [2]: 100%

O=C(O)CC(O)(CC(=O)O)C(=O)O [Sodium citrate]
% Ga in Solution After 4 Days [2]: 100%

O=C(O)CN(CC(=O)O)CC(=O)O [Sodium nitrilo triacetate]
% Ga in Solution After 4 Days [2]: 100% | Initial Result: time to complete reaction ([2]; heating to 85° C., H2O2): 3 min

O=C(O)C(=O)O [Sodium oxalate]
% Ga in Solution After 4 Days [2]: 100% | Initial Result: time to complete reaction ([2]; heating to 85° C., H2O2): 1 min | Initial Result [2, 9]: small prec.

O=P([O-])([O-])OP(=O)([O-])[O-].[Na+].[Na+].[Na+].[Na+] [Sodium pyrophosphate Na4 P2 O7, Sodium pyrophosphate]
% Ga in Solution After 4 Days [2]: 100% | Initial Result [2]: white prec. | Initial Result: time to complete reaction (min) [2]: 3

CCCCCCCCCCCC(=O)NO [dodecanohydroxamic acid]
effectiveness in reaction and dissolution of gallium arsenide ([2]; H2O2 as oxidizing agent): reaction did not occur | Initial Result [2, 9]: No reaction | % Ga in Solution After 4 Days (omitted heating) ([2]; omitted heating, H2O2): 100% | Initial Result: time to complete reaction ([2]; with 10 ml 2-ethyl hexanol, omitted heating, H2O2): 360 min | Initial Result in 15 min. ([2]; with 10 ml 2-ethyl hexanol, omitted heating, mild exotherm, 15 min.): Some reaction | time for complete reaction ([2]; with a solvent (Test ε)): about 6 hours

BrBr [liquid bromine, bromine]
Result: time to complete reaction, no heating [1, 7]: 37 s

CCCCCCCC(=O)NO [octanohydroxamic acid]
Initial Result: % dissolved in 24 hrs. ([2]; 1.48 grams, omitted heating, 24 hrs.): 52.5% | % Ga in Solution After 4 Days (after addn. of 10 ml n-BuOH) ([2]; omitted heating, after addn. of 10 ml n-BuOH, H2O2): 100%

N-ethyl naphthenohydroxamic acid [N--Ethyl naphthenohydroxamic acid]
% Decomposition [6]: -0.53%

N-methyl naphthenohydroxamic acid [N--Methyl naphthenohydroxamic acid]
time to complete dissolution after addition to Test N mixture ([2]; 2.98 grams added to Test N mixture after no reaction in 11.5 min.): 60 s | effectiveness in reaction and dissolution of gallium arsenide ([2]; H2O2 as oxidizing agent): rapid reaction and dissolution of the gallium arsenide | % Decomposition [6]: +0.14%

N-n-propyl naphthenohydroxamic acid [N--Propyl naphthenohydroxamic acid]
% Decomposition [6]: +0.74%

naphthenohydroxamic acid [N--H naphthenohydroxamic acid, reference compound]
% Decomposition [6]: 45.0%

neotridecanohydroxamic acid
Solubility (25° C.) [3]: 328. ppm | Solubility (25° C.), molarity [3]: 1.43 × 10^-3 molarity

versatohydroxamic acid [versatohydroxamic acid (not N--alkyl), reference compound]
Solubility (25° C.) [3]: 1600. ppm | Solubility (25° C.), molarity [3]: 8.54 × 10^-3 molarity
